Patent publication US20250084074A1, “SUBSTITUTED HETEROCYCLES AS HSET INHIBITORS” (MERCK PATENT GMBH, priority 2022, published 2025)
Counter-ions that a name gives are not always drawn.

biological target: HSET full length protein (Homo sapiens (Human), UniProt Q9BW19); experiment: HSET ADP-Glo Assay S - 3 μM ATP; format: biochemical; settings: 5 nM HSET, 70 μg/mL microtubule, 80 min at rt, read-out: COMBINED HSET ADP GLO IC50
How it was run: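 Full-length human HSET (5 nM) with paclitaxel-stabilised bovine brain microtubules (70 μg/mL) in HEPES pH 6.8 buffer was preincubated 10 min with compound. ATP at 3 μM started the reaction, which ran 80 min at rt. ADP formed was measured by ADP-Glo luminescence.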

HSET full length protein, sequence (Q9BW19 whole entry): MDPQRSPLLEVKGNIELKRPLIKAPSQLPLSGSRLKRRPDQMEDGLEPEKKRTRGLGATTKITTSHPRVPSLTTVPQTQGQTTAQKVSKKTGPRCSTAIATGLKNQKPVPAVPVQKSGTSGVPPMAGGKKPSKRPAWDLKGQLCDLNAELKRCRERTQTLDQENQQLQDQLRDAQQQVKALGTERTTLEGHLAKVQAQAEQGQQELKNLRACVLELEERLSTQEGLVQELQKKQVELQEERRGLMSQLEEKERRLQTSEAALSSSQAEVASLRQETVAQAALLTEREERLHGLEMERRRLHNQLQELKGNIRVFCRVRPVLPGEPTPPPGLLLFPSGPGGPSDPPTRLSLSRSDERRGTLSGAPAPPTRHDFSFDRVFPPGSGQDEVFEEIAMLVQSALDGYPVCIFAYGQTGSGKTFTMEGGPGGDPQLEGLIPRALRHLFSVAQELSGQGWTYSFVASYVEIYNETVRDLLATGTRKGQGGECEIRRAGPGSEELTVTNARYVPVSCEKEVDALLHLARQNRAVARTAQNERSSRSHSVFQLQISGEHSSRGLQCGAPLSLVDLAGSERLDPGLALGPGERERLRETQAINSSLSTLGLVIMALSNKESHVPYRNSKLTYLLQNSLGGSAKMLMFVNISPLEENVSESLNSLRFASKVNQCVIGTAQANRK

| Compound | IC50 [nM] |
| --- | --- |
| CCCNC(=O)c1cc(NC(=O)CCNc2nccc3ccc(-c4noc(C)n4)cc23)nn1C [Example 73, 1-Methyl-3-(3-((7-(5-methyl-1,2,4-oxadiazol-3-yl)isoquinolin-1-yl)amino)propanamido)-N-propyl-1 H-pyrazole-5-carboxamide] | 3890 |
| CCCOC(=O)c1sc(C(=O)N(C)CCNc2nccc3ccc(-c4noc(C)n4)cc23)nc1C [Example 74, Propyl 4-methyl-2-(methyl(2-((7-(5-methyl-1,2,4-oxadiazol-3-yl)isoquinolin-1-yl)amino)ethyl)carbamoyl)thiazole-5-carboxylate] | 272 |
| CCc1cc(NC(=O)CCNc2nccc3ccc(-c4noc(C)n4)cc23)nn1C [Example 76] | 8310 |
| Cc1nc(-c2ccc3ccnc(NCCC(=O)Nc4cc(C(C)(C)C)on4)c3c2)no1 [Example 77, N-(5-(tert-butyl)isoxazol-3-yl)-3-((7-(5-methyl-1,2,4-oxadiazol-3-yl)isoquinolin-1-yl)amino)propenamide] | 556 |
| Cc1nc(-c2ccc3ccnc(NCCC(=O)Nc4cc(C5CC5)on4)c3c2)no1 [Example 78] | 1500 |
| CCc1cc(NC(=O)CCNc2nccc3ccc(-c4noc(C)n4)cc23)no1 [Example 79, N-(5-ethylisoxazol-3-yl)-3-((7-(5-methyl-1,2,4-oxadiazol-3-yl)isoquinolin-1-yl)amino)propanamide] | 4340 |
| Cc1nc(-c2ccc3ccnc(NCCC(=O)Nc4ncc(C(C)(C)C)s4)c3c2)no1 [Example 80, N-(5-(tert-butyl)thiazol-2-yl)-3-((7-(5-methyl-1,2,4-oxadiazol-3-yl)isoquinolin-1-yl)amino)propanamide] | 201 |
| CCc1nc(NC(=O)CCNc2nccc3ccc(-c4noc(C)n4)cc23)sc1C(C)(C)C [Example 81, N-(5-(tert-butyl)-4-ethylthiazol-2-yl)-3-((7-(5-methyl-1,2,4-oxadiazol-3-yl)isoquinolin-1-yl)amino)propanamide] | 21 |
| Cc1nc(-c2ccc3ccnc(NCCC(=O)Nc4cc(C(C)(C)C)n(C)n4)c3c2)no1 [Example 82, N-(5-(tert-butyl)-1-methyl-1 H-pyrazol-3-yl)-3-((7-(5-methyl-1,2,4-oxadiazol-3-yl)isoquinolin-1-yl)amino)propanamide] | 1480 |
| COC1(c2sc(NC(=O)CCNc3nccc4ccc(-c5noc(C)n5)cc34)nc2C)COC1 [Example 83, N-[5-(3-methoxyoxetan-3-yl)-4-methyl-thiazol-2-yl]-3-[[7-(5-methyl-1,2,4-oxadiazol-3-yl)-1-isoquinolyl]amino]propanamide] | 1680 |
| CCCOC1(c2sc(NC(=O)CCNc3nccc4ccc(-c5noc(C)n5)cc34)nc2C)COC1 [Example 84] | 57 |
| CCCN(C)C(=O)c1sc(NC(=O)CCNc2nccc3ccc(-c4noc(C)n4)cc23)nc1C [Example 85, N,4-dimethyl-2-[3-[[7-(5-methyl-1,2,4-oxadiazol-3-yl)-1-isoquinolyl]amino]propanoylamino]-N-propyl-thiazole-5-carboxamide] | 1740 |
| Cc1nc(-c2ccc3ccnc(NCCC(=O)Nc4ncc(C5=CCCCC5)s4)c3c2)no1 [Example 86] | 848 |
| COC1(c2cnc(NC(=O)CCNc3nccc4ccc(-c5noc(C)n5)cc34)s2)CCCCC1 [Example 87] | 9380 |
| CCOC(=O)c1sc(NC(=O)CCNC(=O)c2cccc(-c3noc(C)n3)c2)nc1C(C)C [Example 88, Ethyl 4-isopropyl-2-[3-[[3-(5-methyl-1,2,4-oxadiazol-3-yl)benzoyl]amino]propanoylamino]thiazole-5-carboxylate] | 477 |
| Cc1nc(NC(=O)CCNC(=O)c2cccc(-c3cnn(C)c3)c2)sc1C(=O)OC(C)(C)C [Example 89, tert-Butyl-4-methyl-2-(3-(3-(1-methyl-1 H-pyrazol-4-yl)benzamido)propanamido)thiazole-5-carboxylate] | 391 |
| CCc1nc(NC(=O)CCNC(=O)c2cccc(-c3noc(C)n3)c2)sc1C(=O)OC [Example 90, Methyl 4-ethyl-2-[3-[[3-(5-methyl-1,2,4-oxadiazol-3-yl)benzoyl]amino]propanoylamino]thiazole-5-carboxylate] | 556 |

| Compound | IC50 [nM] |
| --- | --- |
| CCOC(=O)c1sc(NC(=O)CCNC(=O)c2cccc(-c3noc(C)n3)c2)nc1C(F)(F)F [Example 91, Ethyl 2-[3-[[3-(5-methyl-1,2,4-oxadiazol-3-yl)benzoyl]amino]propanoylamino]-4-(trifluoromethyl)thiazole-5-carboxylate] | 415 |
| CCOC(=O)c1sc(NC(=O)CCNC(=O)c2cccc(-c3noc(C)n3)c2)nc1CC [Example 92, Ethyl 4-ethyl-2-[3-[[3-(5-methyl-1,2,4-oxadiazol-3-yl)benzoyl]amino]propanoylamino]thiazole-5-carboxylate] | 45 |
| Cc1nc(-c2cccc(C(=O)NCCC(=O)Nc3nc(C)c(/C=C/C4CCCC4)s3)c2)no1 [Example 93, N-[3-[[5-[(E)-2-cyclopentylvinyl]-4-methyl-thiazol-2-yl]amino]-3-oxo-propyl]-3-(5-methyl-1,2,4-oxadiazol-3-yl)benzamide] | 691 |
| COC/C=C/c1sc(NC(=O)CCNC(=O)c2cccc(-c3noc(C)n3)c2)nc1C [Example 94, N-[3-[[5-[(E)-3-methoxyprop-1-enyl]-4-methyl-thiazol-2-yl]amino]-3-oxo-propyl]-3-(5-methyl-1,2,4-oxadiazol-3-yl)benzamide] | 13400 |
| C=C(c1ccccc1)c1sc(NC(=O)CCNC(=O)c2cccc(-c3noc(C)n3)c2)nc1C [Example 95, 3-(5-Methyl-1,2,4-oxadiazol-3-yl)-N-[3-[[4-methyl-5-(1-phenylvinyl)thiazol-2-yl]amino]-3-oxo-propyl]benzamide] | 823 |
| Cc1nc(-c2ccc3ccnc(N[C@H]4C[C@@H](C(=O)Nc5ncc(C(F)(F)C(F)(F)F)s5)C4)c3c2)no1 [Example 96, 3-[[7-(5-methyl-1,2,4-oxadiazol-3-yl)-1-isoquinolyl]amino]-N-[5-(1,1,2,2,2-pentafluoroethyl)thiazol-2-yl]cyclobutanecarboxamide] | 2190 |
| Cc1nc(-c2ccc3ccnc(N[C@H]4C[C@@H](C(=O)Nc5nc(C)c(C(C)(C)C)s5)C4)c3c2)no1 [Example 98, (1 s,3s)-N-(5-(tert-butyl)-4-methylthiazol-2-yl)-3-((7-(5-methyl-1,2,4-oxadiazol-3-yl)isoquinolin-1-yl)amino)cyclobutane-1-carboxamide] | 72 |
| CCCOC(=O)c1sc(NC(=O)[C@H]2C[C@@H](Nc3nccc4ccc(-c5noc(C)n5)cc34)C2)nc1C [Example 99, Propyl4-methyl-2-((1s,3s)-3-((7-(5-methyl-1,2,4-oxadiazol-3-yl)isoquinolin-1-yl)amino)cyclobutane-1-carboxamido)thiazole-5-carboxylate] | 7 |
| Cc1nc(-c2ccc3ccnc(N[C@H]4C[C@@H](C(=O)Nc5cc(C(C)(C)C)on5)C4)c3c2)no1 [Example 100, (1 s,3s)-N-(5-(tert-butyl)isoxazol-3-yl)-3-((7-(5-methyl-1,2,4-oxadiazol-3-yl)isoquinolin-1-yl)amino)cyclobutane-1-carboxamide] | 836 |
| CCCCCc1cc(NC(=O)[C@H]2C[C@@H](Nc3nccc4ccc(-c5noc(C)n5)cc34)C2)nn1C [Example 101, (1s,3s)-3-((7-(5-methyl-1,2,4-oxadiazol-3-yl)isoquinolin-1-yl)amino)-N-(1-methyl-5-pentyl-1 H-pyrazol-3-yl)cyclobutane-1-carboxamide] | 276 |
| Cc1nc(-c2ccc3ccnc(N[C@H]4C[C@@H](C(=O)Nc5cc(C)c(CC(C)C)s5)C4)c3c2)no1 [Example 102, (1s,3s)-N-(5-isobutyl-4-methylthiophen-2-yl)-3-((7-(5-methyl-1,2,4-oxadiazol-3-yl)isoquinolin-1-yl)amino)cyclobutane-1-carboxamide formate] | 409 |
| Cc1nc(-c2ccc3ccnc(N[C@H]4C[C@@H](C(=O)Nc5nc(C)c(C(F)(F)F)s5)C4)c3c2)no1 [Example 103, (1s,3s)-3-((7-(5-methyl-1,2,4-oxadiazol-3-yl)isoquinolin-1-yl)amino)-N-(4-methyl-5-(trifluoromethyl)thiazol-2-yl)cyclobutane-1-carboxamide] | 676 |
| Cc1nc(-c2cccc(C(=O)N[C@H]3C[C@@H](C(=O)Nc4nc(C)c(C(=O)OC(C)(C)C)s4)C3)c2)no1 [Example 104, tert-Butyl 4-methyl-2-((1s,3s)-3-(3-(5-methyl-1,2,4-oxadiazol-3-yl)benzamido)cyclobutane-1-carboxamido)thiazole-5-carboxylate] | 93 |
| Cc1nc(NC(=O)[C@H]2C[C@@H](NC(=O)c3cccc(-c4ncon4)c3)C2)sc1C(=O)OC(C)(C)C [Example 105, tert-Butyl 2-((1s,3s)-3-(3-(1,2,4-oxadiazol-3-yl)benzamido)cyclobutane-1-carboxamido)-4-methylthiazole-5-carboxylate] | 1590 |
| Cc1nnc(-c2cccc(C(=O)N[C@H]3C[C@@H](C(=O)Nc4nc(C)c(C(=O)OC(C)(C)C)s4)C3)c2)o1 [Example 106, tert-Butyl 4-methyl-2-((1s,3s)-3-(3-(5-methyl-1,3,4-oxadiazol-2-yl)benzamido)cyclobutane-1-carboxamido)thiazole-5-carboxylate] | 132 |
| Cc1nc(NC(=O)[C@H]2C[C@@H](NC(=O)c3cccc(-c4nnn(C)n4)c3)C2)sc1C(=O)OC(C)(C)C [Example 107, tert-Butyl-4-methyl-2-((1s,3s)-3-(3-(2-methyl-2H-tetrazol-5-yl)benzamido)cyclobutane-1-carboxamido)thiazole-5-carboxylate] | 41 |
| Cc1nc(NC(=O)[C@H]2C[C@@H](Nc3nccc4ccc(Cl)cc34)C2)sc1C(=O)OC(C)(C)C [Example 108, tert-Butyl 2-((1s,3s)-3-((7-chloroisoquinolin-1-yl)amino)cyclobutane-1-carboxamido)-4-methylthiazole-5-carboxylate] | 1620 |
